In one experiment the target is CDK4/D1 (Homo sapiens, UniProt P11802). Kind of experiment: ADP Glo Kinase assay CDK4/D1. The following applies: CDK4D1; for remaining activity at 10 µM: compound at 10 μM, read-out: residual activity (%) at 10 μM CDK4D1. Type of experiment: biochemical. The method in brief:
(§1)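 Luminescent ADP detection measured activity after a 40 min, 37° C ATP-initiated reaction, using RB-CTF for CDK4/D1 and CDK6/D3 and RBER-IRStide for CDK9/T1. Controls lacked or contained kinase. Values: IC50 by four-parameter nonlinear regression, Ki from ATP Km.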
(In ADP-Glo the light output rises with the ADP produced.)

Another experiment deals with CDK6/D3 (Homo sapiens, UniProt Q00534). Kind of experiment: ADP Glo Kinase assay CDK6/D3. Type of experiment: biochemical. The following applies: CDK6D3; for remaining activity at 10 µM: compound at 10 μM, read-out: residual activity (%) at 10 μM CDK6D3. The method in brief: as §1
Another experiment addresses CDK9/T1 (Homo sapiens, UniProt P50750). Kind of experiment: ADP Glo Kinase assay CDK9/T1. The following applies: CDK9T1; read-out: CDK inhibition, Ki (μM) CDK9T1. Format: biochemical. The method in brief: as §1
Experiment [1] addresses T1, CDKs and other kinases (Homo sapiens, UniProt P06493).
T1 construct: other: CDK1B; residual activity (%) at 10 μM CDK1B; compound at 10 μM
Kind of experiment: Radiometric kinase assay (Eurofins Pharma Discovery or Reaction Biology Corporation Kinase Profiler). The note with it: CDK1B; for Ki: read-out: CDK inhibition, Ki (μM) CDK1B; for remaining activity at 10 µM: compound at 10 μM, read-out: residual activity (%) at 10 μM CDK1B. Format: biochemical. In outline:
(§2)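 Other CDKs and further kinases were profiled externally by radiometric assay. In-house ADP Glo assays covered CDK4/D1 and CDK6/D3 (RB-CTF substrate, pH 7.5 Tris buffer with MgCl2, DTT, BSA) and CDK9/T1 (RBER-IRStide substrate), 40 min at 37° C.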

The target of experiment [2] is T2, CDKs and other kinases (Homo sapiens, UniProt P24941).
T2 construct: other: CDK2A; residual activity (%) at 10 μM CDK2A; compound at 10 μM
Described as above. Format: biochemical. The following applies: CDK2A; for Ki: read-out: CDK inhibition, Ki (μM) CDK2A; for remaining activity at 10 µM: compound at 10 μM, read-out: residual activity (%) at 10 μM CDK2A. The method in brief: as §2

Experiment [3] has as its target T3, CDKs and other kinases (Homo sapiens, UniProt P50613).
T3 construct: other: CDK7H; residual activity (%) at 10 μM CDK7H; compound at 10 μM
Described as above. The note with it: CDK7H; for Ki: read-out: CDK inhibition, Ki (μM) CDK7H; for remaining activity at 10 µM: compound at 10 μM, read-out: residual activity (%) at 10 μM CDK7H. Type of experiment: biochemical. The method in brief: as §2

For a further experiment, the system named is leukemia cell lines. Kind of experiment: Resazurin cell viability assay on leukemia cell lines (72 h growth inhibition, GI50). Type of experiment: cell-based. The following applies: Homo sapiens, MV4-11 cells. The method in brief: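 Viability is measured by MTT in solid tumour cells and by resazurin in leukaemia cells. Reported values are GI50s calculated with non-linear regression analysis.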
Background: Alamar Blue is a resazurin reagent that responds to reducing activity.

SMILES strings stand for the structures.

Data on seven molecules can be found in US11111245B2, “Derivatives of N-cycloalkyl/heterocycloalkyl-4-(imidazo[1,2-a]pyridine)pyrimidin-2-amine as therapeutic agents” (Aucentra Therapeutics Pty Ltd, priority 2017, dated 2021).

Sequence of CDK4/D1 (P11802 whole entry): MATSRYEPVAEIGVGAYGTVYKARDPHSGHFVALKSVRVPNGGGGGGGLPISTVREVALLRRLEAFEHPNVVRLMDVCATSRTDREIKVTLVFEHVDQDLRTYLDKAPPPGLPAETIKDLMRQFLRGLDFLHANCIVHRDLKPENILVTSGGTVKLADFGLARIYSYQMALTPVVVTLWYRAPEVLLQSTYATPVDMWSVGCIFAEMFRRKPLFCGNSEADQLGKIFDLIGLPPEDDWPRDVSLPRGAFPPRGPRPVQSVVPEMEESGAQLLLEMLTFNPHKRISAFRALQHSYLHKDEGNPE
Sequence of CDK4/D1 (P24385 whole entry partner): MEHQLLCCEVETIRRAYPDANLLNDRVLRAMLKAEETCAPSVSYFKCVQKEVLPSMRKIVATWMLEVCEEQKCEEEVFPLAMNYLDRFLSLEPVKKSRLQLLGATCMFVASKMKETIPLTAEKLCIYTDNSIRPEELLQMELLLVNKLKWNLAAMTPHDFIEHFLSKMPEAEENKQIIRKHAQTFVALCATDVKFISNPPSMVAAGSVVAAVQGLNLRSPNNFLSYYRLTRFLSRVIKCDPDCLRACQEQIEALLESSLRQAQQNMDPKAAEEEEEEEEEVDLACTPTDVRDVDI
Sequence of CDK6/D3 (Q00534 whole entry): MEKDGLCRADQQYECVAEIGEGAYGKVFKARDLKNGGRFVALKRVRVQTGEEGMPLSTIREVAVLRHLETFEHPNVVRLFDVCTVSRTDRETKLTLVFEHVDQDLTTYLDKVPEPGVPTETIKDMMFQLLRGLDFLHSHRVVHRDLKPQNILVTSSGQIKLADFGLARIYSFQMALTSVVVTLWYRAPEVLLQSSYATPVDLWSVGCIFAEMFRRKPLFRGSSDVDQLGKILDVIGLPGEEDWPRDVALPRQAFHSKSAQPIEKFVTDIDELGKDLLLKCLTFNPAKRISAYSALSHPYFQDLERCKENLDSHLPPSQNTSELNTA
Sequence of CDK6/D3 (P30281 whole entry partner): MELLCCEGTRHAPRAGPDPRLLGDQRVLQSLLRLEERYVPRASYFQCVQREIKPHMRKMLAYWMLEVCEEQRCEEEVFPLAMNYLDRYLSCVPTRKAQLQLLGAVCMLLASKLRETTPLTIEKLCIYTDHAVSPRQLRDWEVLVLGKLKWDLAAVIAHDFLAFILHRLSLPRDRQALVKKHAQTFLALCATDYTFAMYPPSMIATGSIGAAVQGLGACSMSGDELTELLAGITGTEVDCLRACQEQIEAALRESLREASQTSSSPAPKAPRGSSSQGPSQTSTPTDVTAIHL
T3 sequence (P50613 whole entry): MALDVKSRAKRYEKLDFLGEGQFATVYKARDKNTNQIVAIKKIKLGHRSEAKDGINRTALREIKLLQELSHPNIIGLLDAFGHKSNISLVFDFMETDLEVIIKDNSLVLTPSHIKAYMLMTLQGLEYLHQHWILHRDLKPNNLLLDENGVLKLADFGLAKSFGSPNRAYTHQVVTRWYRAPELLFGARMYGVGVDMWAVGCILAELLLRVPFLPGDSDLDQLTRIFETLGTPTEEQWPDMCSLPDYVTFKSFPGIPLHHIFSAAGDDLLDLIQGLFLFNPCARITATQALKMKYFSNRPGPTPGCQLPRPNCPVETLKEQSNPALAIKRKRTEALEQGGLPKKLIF
Sequence of CDK9/T1 (P50750 whole entry): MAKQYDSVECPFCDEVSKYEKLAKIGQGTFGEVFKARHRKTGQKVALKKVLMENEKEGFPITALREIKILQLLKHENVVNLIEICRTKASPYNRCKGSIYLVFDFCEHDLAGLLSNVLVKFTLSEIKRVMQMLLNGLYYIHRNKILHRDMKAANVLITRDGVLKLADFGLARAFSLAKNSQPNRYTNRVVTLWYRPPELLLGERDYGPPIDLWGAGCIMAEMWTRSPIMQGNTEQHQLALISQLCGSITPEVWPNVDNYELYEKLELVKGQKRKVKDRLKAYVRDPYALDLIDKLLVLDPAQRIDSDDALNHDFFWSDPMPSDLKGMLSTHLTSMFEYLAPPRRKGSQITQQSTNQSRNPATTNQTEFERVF
Sequence of CDK9/T1 (O60563 whole entry partner): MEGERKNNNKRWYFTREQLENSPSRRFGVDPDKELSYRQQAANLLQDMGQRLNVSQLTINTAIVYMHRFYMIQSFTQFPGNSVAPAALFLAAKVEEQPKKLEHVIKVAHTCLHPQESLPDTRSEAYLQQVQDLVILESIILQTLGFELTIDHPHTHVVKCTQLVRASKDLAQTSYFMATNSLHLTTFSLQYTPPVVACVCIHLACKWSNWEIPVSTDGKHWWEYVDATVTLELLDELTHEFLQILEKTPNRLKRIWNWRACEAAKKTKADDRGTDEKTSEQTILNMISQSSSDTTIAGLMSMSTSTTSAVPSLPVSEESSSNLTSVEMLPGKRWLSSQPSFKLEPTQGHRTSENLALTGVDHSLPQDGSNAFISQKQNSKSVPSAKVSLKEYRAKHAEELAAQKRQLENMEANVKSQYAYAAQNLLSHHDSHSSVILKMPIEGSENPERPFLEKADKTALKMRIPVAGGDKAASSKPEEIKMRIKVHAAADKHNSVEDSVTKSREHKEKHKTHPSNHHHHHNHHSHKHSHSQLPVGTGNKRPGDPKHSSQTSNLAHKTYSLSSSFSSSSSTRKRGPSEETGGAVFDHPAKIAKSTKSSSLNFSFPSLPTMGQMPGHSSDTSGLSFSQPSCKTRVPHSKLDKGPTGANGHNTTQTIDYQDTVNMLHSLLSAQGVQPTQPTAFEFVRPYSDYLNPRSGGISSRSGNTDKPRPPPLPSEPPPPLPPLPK
T1 sequence (P06493 whole entry): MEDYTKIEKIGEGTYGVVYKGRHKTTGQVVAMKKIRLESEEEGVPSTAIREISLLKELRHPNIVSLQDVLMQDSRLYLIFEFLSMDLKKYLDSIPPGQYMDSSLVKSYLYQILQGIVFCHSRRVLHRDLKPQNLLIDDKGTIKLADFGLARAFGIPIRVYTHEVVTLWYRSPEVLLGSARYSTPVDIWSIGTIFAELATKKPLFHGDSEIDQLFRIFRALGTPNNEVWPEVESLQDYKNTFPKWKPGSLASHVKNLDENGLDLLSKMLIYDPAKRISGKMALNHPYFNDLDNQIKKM

On to `Cc1cnc(N[C@H]2CC[C@H](N)CC2)nc1-c1cnc2ccc(-c3cncnc3)cn12` [Compound 39, (1r,4r)-N^1-(5-Methyl-4-(6-(pyrimidin-5-yl)imidazo[1,2-a]pyridin-3-yl)pyrimidin-2-yl)cyclohexane-1,4-diamine], for which the remaining activity at 10 µM on CDK4/D1 stood at 36%; on CDK6/D3, 100%. Moreover, the inhibitory constant (Ki) on CDK9/T1 was 0.165 µM; on CDKs and other kinases [1], 7.36 µM; at CDKs and other kinases [2], 4.74 µM; at CDKs and other kinases [3], 5.6 µM. The molecule also registered a 50% growth inhibitory concentration (GI50) in the experiment with leukemia cell lines of 0.082 ± 0.02 µM.
Take `Cc1cnc(N[C@H]2CC[C@H](O)CC2)nc1-c1cnc2ccc(Nc3cccnc3)cn12` [Compound 106, (1r,4r)-4-((5-Methyl-4-(6-(pyridin-3-ylamino)imidazo [1,2-a]pyridin-3-yl)pyrimidin-2-yl)amino)cyclohexan-1-ol]: the remaining activity at 10 µM was determined as 43% at CDK4/D1; 71% on CDK6/D3; 5% at CDKs and other kinases [1]; 2% at CDKs and other kinases [2]; 25% on CDKs and other kinases [3]. In addition, the inhibitory constant (Ki) on CDK9/T1 was 0.042 µM. For the same molecule, in the experiment on leukemia cell lines, the GI50 was 0.851 ± 0.048 µM.
For the molecule `Cc1noc(C)c1-c1ccc2ncc(-c3nc(N[C@H]4CC[C@H](N)CC4)ncc3Cl)n2c1` [Compound 83, (1r,4r)-N^1-(5-Chloro-4-(6-(3,5-dimethylisoxazol-4-yl)imidazo[1,2-a]pyridin-3-yl)pyrimidin-2-yl)cyclohexane-1,4-diamine], the figures for the remaining activity at 10 µM on CDK4/D1 and at CDK6/D3 were 27% and 80%, respectively. Also, the Ki came out at 0.065 µM on CDK9/T1; 2.56 µM at CDKs and other kinases [1]; 0.91 µM at CDKs and other kinases [2]; 0.58 µM on CDKs and other kinases [3]. In addition, in the experiment on leukemia cell lines, growth was halved (GI50) at 0.052 ± 0.011 µM.
Regarding `Fc1cnc(N[C@H]2CC[C@H](NC3CCOCC3)CC2)nc1-c1cnc2ccccn12` [Compound 33, (1r,4r)-N^1-(5-Fluoro-4-(imidazo[1,2-a]pyridin-3-yl)pyrimidin-2-yl)-N4-(tetrahydro-2H-pyran-4-yl) cyclohexane-1,4-diamine], the remaining activity at 10 µM amounted to 7% on CDK4/D1; 12% at CDK6/D3; 11% on CDKs and other kinases [1]; 13% at CDKs and other kinases [2]; 7% on CDKs and other kinases [3]. For the same molecule, the inhibition constant (Ki) on CDK9/T1 is 0.022 µM. In the experiment on leukemia cell lines, this molecule returned a 50% growth inhibitory concentration (GI50) of 0.004 ± 0.001 µM.
Regarding `COC(=O)CN[C@H]1CC[C@H](Nc2ncc(F)c(-c3cnc4ccccn34)n2)CC1` [Compound 15, Methyl ((1r,4r)-4-((5-fluoro-4-(imidazo[1,2-a]pyridin-3-yl)pyrimidin-2-yl)amino)cyclohexyl)glycinate], the remaining activity at 10 µM at CDK4/D1 was found to be 0%; on CDK6/D3, 13%. The Ki on CDK9/T1 was determined as 0.014 µM; on CDKs and other kinases [1], 0.07 µM; at CDKs and other kinases [2], 0.027 µM; on CDKs and other kinases [3] it was 0.15 µM. In the experiment on leukemia cell lines, this molecule gave a concentration for 50% growth inhibition (GI50) of 0.05 ± 0.009 µM.
As to `Cc1cnc(NC2CCC(N(C)C)CC2)nc1-c1cnc2ccc(Nc3cncnc3)cn12` (stereo not shown) [Compound 99, N^1,N^1-dimethyl-N^4-(5-Methyl-4-(6-(pyrimidin-5-ylamino)imidazo[1,2-a]pyridin-3-yl)pyrimidin-2-yl)cyclohexane-1,4-diamine], the Ki was determined as 1.16 µM on CDK4/D1 (read-out: CDK inhibition, Ki (μM) CDK4D1); 0.51 µM at CDK6/D3 (read-out: CDK inhibition, Ki (μM) CDK6D3); 0.006 µM at CDK9/T1; 1.66 µM on CDKs and other kinases [1]; 0.48 µM on CDKs and other kinases [2]; 3.1 µM on CDKs and other kinases [3]. The same molecule displayed a 50% growth inhibitory concentration (GI50) in the experiment on leukemia cell lines of 0.265 ± 0.034 µM.
In the case of `N[C@H]1CC[C@H](Nc2ncc(F)c(-c3cnc4ccc(-c5ccc(CN6CCOCC6)cc5)cn34)n2)CC1` [Compound 47, (1r,4r)-N^1-(5-Fluoro-4-(6-(4-(morpholinomethyl)phenyl)imidazo[1,2-a]pyridin-3-yl)pyrimidin-2-yl)cyclohexane-1,4-diamine], the remaining activity at 10 µM worked out at 4% on CDK4/D1; 16% on CDK6/D3; 5% on CDKs and other kinases [1]; 2% on CDKs and other kinases [2]. Also, the inhibition constant Ki on CDK9/T1 was 0.004 µM; on CDKs and other kinases [3] it was 0.075 µM. Moreover, in the experiment on leukemia cell lines, the concentration for 50% growth inhibition (GI50) amounted to 0.003 ± 0.001 µM.

The term Ki denotes a measure of affinity in units of concentration, obtained from inhibition or displacement. For orientation: GI50 means the concentration that inhibits growth by half. The low end stands for greater sensitivity of the cells, the high end for lower sensitivity of the cells.
